The source made the active and inactive calls. The calls are words filed in the database; no cut-off is given here.
Experiments:
Homo sapiens = species: Homo sapiens; test: Inhibition of Cdk4/Cyclin D (unknown origin) relative to untreated control; settings: concentration not given here
[1] = Chemical stability of the compound; type: physicochemical
Skut1B [2] = test: Growth inhibition of Rb-proficient human SK-UT-1B cells after 120 hrs by SRB assay; type: functional
A-375 [3] = test: Growth inhibition of Rb-proficient human A375 cells after 120 hrs by SRB assay; type: functional
MDA-MB-231 [4] = test: Growth inhibition of Rb-proficient human MDA-MB-231 cells after 120 hrs by SRB assay; type: functional
Calu-6 [5] = test: Growth inhibition of Rb-proficient human Calu6 cells after 120 hrs by SRB assay; type: functional
SJSA-1 [6] = test: Growth inhibition of Rb-proficient human SJSA1 cells after 120 hrs by SRB assay; type: functional
[7] = biological target: Cyclin-dependent kinase 2 (Homo sapiens, UniProt P24941)
Description: Inhibition of CDK2 (unknown origin)

MDA-MB-231 [8] = test: Growth inhibition of Rb-proficient human MDA-MB-231 cells at 30 uM after 120 hrs by SRB assay; type: functional, cell-based
SJSA-1 [9] = test: Growth inhibition of Rb-proficient human SJSA1 cells at 30 uM after 120 hrs by SRB assay; type: functional, cell-based
Calu-6 [10] = test: Growth inhibition of Rb-proficient human Calu6 cells at 30 uM after 120 hrs by SRB assay; type: functional, cell-based
Skut1B [11] = test: Growth inhibition of Rb-proficient human SK-UT-1B cells at 30 uM after 120 hrs by SRB assay; type: functional, cell-based
A-375 [12] = test: Growth inhibition of Rb-proficient human A375 cells at 30 uM after 120 hrs by SRB assay; type: functional, cell-based

Row | Structure (SMILES) | growth inhibition (GI) (Skut1B [2]) | growth inhibition (GI) (A-375 [3]) | growth inhibition (GI) (MDA-MB-231 [4]) | growth inhibition (GI) (Calu-6 [5]) | growth inhibition (GI) (SJSA-1 [6]) | also measured
1 | Nc1nc(OCC2CCCCC2)c2cn[nH]c2n1 |  |  |  |  |  | inhibition (Homo sapiens): 0%
2 | COc1nc(N)nc2nc[nH]c12 [METHYLGUANINE] |  |  |  |  |  | Stability [1]: Unstable
3 | NS(=O)(=O)c1ccc(Nc2nc(OCC3CCCCC3)c3nc[nH]c3n2)cc1 | Active | Active | Active | Active | Active | 
4 | NS(=O)(=O)c1ccc(Nc2nc(OCC3CCCCC3)c3cn[nH]c3n2)cc1 | Dose-dependent effect | Dose-dependent effect | Dose-dependent effect | Dose-dependent effect | Dose-dependent effect | 
5 | CC[C@@H](C)Oc1nc(Nc2ccc(S(N)(=O)=O)cc2)nc(N)c1C=O |  |  |  |  |  | IC50 [7]: 0.0008 µM
6 | CCC(C)Oc1nc(N)nc2[nH]cnc12 (centres undefined) |  |  |  |  |  | IC50 [7]: 49 µM
7 | NS(=O)(=O)c1ccc(Nc2nc(-c3cccc(-c4ccccc4)c3)c3nc[nH]c3n2)cc1 |  |  |  |  |  | growth inhibition (GI) (MDA-MB-231 [8]): inactive; growth inhibition (GI) (SJSA-1 [9]): inactive; growth inhibition (GI) (Calu-6 [10]): inactive; growth inhibition (GI) (Skut1B [11]): inactive; growth inhibition (GI) (A-375 [12]): inactive
8 | NS(=O)(=O)c1ccc(Nc2nc(OCC3CCCCC3)c3cc[nH]c3n2)cc1 | Dose-dependent effect | Dose-dependent effect | Dose-dependent effect | Dose-dependent effect | Dose-dependent effect | 

— ChEMBL document CHEMBL4004788, “Cyclin-Dependent Kinase (CDK) Inhibitors: Structure-Activity Relationships and Insights into the CDK-2 Selectivity of 6-Substituted 2-Arylaminopurines” (J Med Chem, 2017)
